Where a name gives a salt, the structure may show the parent alone. Read-outs that look alike come from different tables or passages of the source.
How the values were obtained:
[1] = target: His-GST-TVMV-hRIPK1(1-324) (Homo sapiens (Human), UniProt Q13546); test: RIPK1 HTRF Binding Assay; settings: HTRF binding, 1 h at rt; read-out: RIPK1 (IC50)
Procedure, shortened: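 HTRF probe-displacement binding: 1 nM His-GST-TVMV-hRIPK1(1-324) (baculovirus construct), 90.6 nM probe, 0.2 nM anti-GST-Tb in 20 mM HEPES, 10 mM MgCl2, 0.015% Brij-35, 4 mM DTT, 0.05 mg/mL BSA. Incubated 1 h at rt; FRET 520/495 nm ratio, inhibition relative to DMSO-only wells.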

[2] = tested on: MLKL phosphorylation in HT29-L23 human colorectal adenocarcinoma cells; test: MLKL Phosphorylation High-Content Assay; type: cell-based; settings: 6 h, necroptosis induced with TNFα, SMAC mimetic and Z-VAD, read-out: pMLKL (IC50)
Procedure, shortened: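 HT29-L23 cells pretreated 30 min at 37 °C with compound (6.25 to 0.106 μM final), then necroptosis induced with TNFα 35 ng/mL, SMAC mimetic 700 nM and Z-VAD 140 nM for 6 h. Fixed cells immunostained for MLKL pS358 and imaged; IC50 and Ymax from 4-parameter logistic fit.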

Chain of His-GST-TVMV-hRIPK1(1-324) (Q13546 1-324): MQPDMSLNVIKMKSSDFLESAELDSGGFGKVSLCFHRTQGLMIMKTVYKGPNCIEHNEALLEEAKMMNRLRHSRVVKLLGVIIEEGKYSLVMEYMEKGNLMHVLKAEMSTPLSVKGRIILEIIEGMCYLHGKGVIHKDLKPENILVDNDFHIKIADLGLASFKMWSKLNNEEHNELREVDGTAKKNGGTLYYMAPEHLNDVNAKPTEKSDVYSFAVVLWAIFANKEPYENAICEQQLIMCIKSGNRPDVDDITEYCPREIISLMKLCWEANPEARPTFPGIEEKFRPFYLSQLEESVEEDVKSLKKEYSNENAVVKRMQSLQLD

| SMILES | IC50 [1] | IC50 ([2]; Homo sapiens) | IC50 [2] |
| --- | --- | --- | --- |
| Cc1nc(C)c(-c2ccc3nc(NC(=O)CO)cn3n2)cc1C(=O)NCc1cc(OC(F)(F)F)ccc1F [Example 38, N-(2-fluoro-5-(trifluoromethoxy)benzyl)-5-(2-(2-hydroxyacetamido)imidazo[1,2-b]pyridazin-6-yl)-2,6-dimethylnicotinamide] | 13 nM | 34 nM |  |
| Cc1ncc(-c2ccc3nc(NC(=O)CO)cn3n2)cc1C(=O)NCc1cc(OC(F)(F)F)ccc1F [Example 39, N-{[2-fluoro-5-(trifluoromethoxy)phenyl]methyl}-5-[2-(2-hydroxyacetamido)imidazo[1,2-b]pyridazin-6-yl]-2-methylpyridine-3-carboxamide] | 55 nM | 119 nM |  |
| [2H]C([2H])([2H])Oc1ncc(-c2ccc3nc(NC(C)=O)cn3n2)cc1C(=O)NCc1cc(OC)ccc1F [Example 40, 5-{2-acetamidoimidazo[1,2-b]pyridazin-6-yl}-N-[(2-fluoro-5-methoxyphenyl)methyl]-2-(D3)methoxypyridine-3-carboxamide] | 125 nM | 265 nM |  |
| [2H]C([2H])([2H])Oc1ncc(-c2ccc3nc(NC(C)=O)cn3n2)cc1C(=O)N[C@@H](C)c1cc(OC(F)(F)F)ccc1F [Example 41, 5-{2-acetamidoimidazo[1,2-b]pyridazin-6-yl}-N-[(1S)-1-[2-fluoro-5-(trifluoromethoxy)phenyl]ethyl]-2-(D3)methoxypyridine-3-carboxamide] | 63 nM | 78 nM |  |
| [2H]C([2H])([2H])Oc1ncc(-c2ccc3nc(NC(C)=O)cn3n2)cc1C(=O)NCc1c(F)cccc1OCC(F)(F)F [Example 42, 5-{2-acetamidoimidazo[1,2-b]pyridazin-6-yl}-N-{[2-fluoro-6-(2,2,2-trifluoroethoxy)phenyl]methyl}-2-(D3)methoxypyridine-3-carboxamide] | 11 nM | 13 nM |  |
| [2H]C([2H])([2H])Oc1ncc(-c2ccc3nc(NC(C)=O)cn3n2)cc1C(=O)NCc1cc(F)cc(F)c1OC1CCCOC1 (stereo not drawn) [Example 43, N-{[3,5-difluoro-2-(oxan-3-yloxy)phenyl]methyl}-5-{2-acetamidoimidazo[1,2-b]pyridazin-6-yl}-2-(D3)methoxypyridine-3-carboxamide] | 10 nM | 28 nM |  |
| [2H]C([2H])([2H])Oc1ncc(-c2ccc3nc(NC(C)=O)cn3n2)cc1C(=O)NCc1cc(F)cc(F)c1O[C@@H]1CCOC1 [Example 44, N-({3,5-difluoro-2-[(3R)-oxolan-3-yloxy]phenyl}methyl)-5-{2-acetamidoimidazo[1,2-b]pyridazin-6-yl}-2-(D3)methoxypyridine-3-carboxamide] | 17 nM | 71 nM |  |
| [2H]C([2H])([2H])Oc1ncc(-c2ccc3nc(NC(C)=O)cn3n2)cc1C(=O)NC([2H])([2H])c1cc(F)cc(F)c1OC1CCOCC1 [Example 46, N-{[3,5-difluoro-2-(oxan-4-yloxy)phenyl](deutero)methyl}-5-{2-acetamidoimidazo[1,2-b]pyridazin-6-yl}-2-(D3)methoxypyridine-3-carboxamide] | 2 nM | 1 nM |  |
| [2H]C([2H])([2H])Oc1ncc(-c2ccc3nc(NC(C)=O)cn3n2)cc1C(=O)N[C@H](C)c1cc(OC(F)(F)F)ccc1F [Example 47, 5-{2-acetamidoimidazo[1,2-b]pyridazin-6-yl}-N-[(1R)-1-[2-fluoro-5-(trifluoromethoxy)phenyl]ethyl]-2-(D3)methoxypyridine-3-carboxamide] | 161 nM | 85 nM |  |
| [2H]C([2H])([2H])Oc1ncc(-c2ccc3nc(NC(C)=O)cn3n2)cc1C(=O)NCc1cc(F)cc(F)c1OC1COC1 [Example 48, N-{[3,5-difluoro-2-(oxetan-3-yloxy)phenyl]methyl}-5-{2-acetamidoimidazo[1,2-b]pyridazin-6-yl}-2-(D3)methoxypyridine-3-carboxamide] | 10 nM | 87 nM |  |
| [2H]C([2H])([2H])Oc1ncc(-c2ccc3nc(NC(C)=O)cn3n2)cc1C(=O)NCc1cc(F)cc(F)c1OC([2H])([2H])C1CC1 [Example 49, N-({2-[cyclopropyl(deutero)methoxy]-3,5-difluorophenyl}methyl)-5-{2-acetamidoimidazo[1,2-b]pyridazin-6-yl}-2-(D3)methoxypyridine-3-carboxamide] | 3 nM | 5 nM |  |
| [2H]C([2H])([2H])Oc1ncc(-c2ccc3nc(NC(C)=O)cn3n2)cc1C(=O)NCc1cc(F)cc(F)c1OC1CCOCC1 [Example 50, N-{[3,5-difluoro-2-(oxan-4-yloxy)phenyl]methyl}-5-{2-acetamidoimidazo[1,2-b]pyridazin-6-yl}-2-(D3)methoxypyridine-3-carboxamide] | 2 nM | 2 nM |  |
| [2H]C([2H])([2H])Oc1ncc(-c2ccc3nc(NC(C)=O)cn3n2)cc1C(=O)NC(C)c1cc(C(F)(F)F)ccc1F (stereo not drawn) [Example 51, 5-{2-acetamidoimidazo[1,2-b]pyridazin-6-yl}-N-{1-[2-fluoro-5-(trifluoromethyl)phenyl]ethyl}-2-(D3)methoxypyridine-3-carboxamide] | 63 nM | 200 nM |  |
| [2H]C([2H])([2H])Oc1ncc(-c2ccc3nc(NC(C)=O)cn3n2)cc1C(=O)NC(C)c1cc(C(F)(F)F)ccc1F (stereo not drawn) [Example 52, 5-{2-acetamidoimidazo[1,2-b]pyridazin-6-yl}-N-{1-[2-fluoro-5-(trifluoromethyl)phenyl]ethyl}-2-(D3)methoxypyridine-3-carboxamide] | 65 nM |  | 185 nM |
| [2H]C([2H])([2H])Oc1ncc(-c2ccc3nc(NC(C)=O)cn3n2)cc1C(=O)NCc1ccc(F)c(F)c1OCC1CC1 [Example 53, N-{[2-(cyclopropylmethoxy)-3,4-difluorophenyl]methyl}-5-{2-acetamidoimidazo[1,2-b]pyridazin-6-yl}-2-(D3)methoxypyridine-3-carboxamide] | 62 nM | 81 nM |  |
| [2H]C([2H])([2H])Oc1ncc(-c2ccc3nc(NC(C)=O)cn3n2)cc1C(=O)NC(C)c1ccccc1OC(F)(F)F (stereo not drawn) [Example 54, 5-{2-acetamidoimidazo[1,2-b]pyridazin-6-yl}-2-(D3)methoxy-N-{1-[2-(trifluoromethoxy)phenyl]eth-yl}pyridine-3-carboxamide] | 5 nM | 24 nM |  |
| [2H]C([2H])([2H])Oc1ncc(-c2ccc3nc(NC(C)=O)cn3n2)cc1C(=O)NCc1cc(F)cc(F)c1OCC1CC1 [Example 55, N-{[2-(cyclopropylmethoxy)-3,5-difluorophenyl]methyl}-5-{2-acetamidoimidazo[1,2-b]pyridazin-6-yl}-2-(D3)methoxypyridine-3-carboxamide, TFA] | 1 nM | 3 nM |  |
| [2H]C([2H])([2H])Oc1ncc(-c2ccc3nc(NC(C)=O)cn3n2)cc1C(=O)NCc1cc(OCC2CC2)ccc1F [Example 56, N-{[5-(cyclopropylmethoxy)-2-fluorophenyl]methyl}-5-{2-acetamidoimidazo[1,2-b]pyri-dazin-6-yl}-2-(D3)methoxypyridine-3-carboxamide, TFA] | 13 nM | 67 nM |  |
| [2H]C([2H])([2H])Oc1ncc(-c2ccc3nc(NC(C)=O)cn3n2)cc1C(=O)NC(C)c1ccccc1OC(F)(F)F (stereo not drawn) [Example 57, 5-{2-acetamidoimidazo[1,2-b]pyridazin-6-yl}-2-(D3)methoxy-N-{1-[2-(trifluoromethoxy)phenyl]eth-yl}pyridine-3-carboxamide] | 10 nM |  | 25 nM |
| [2H]C([2H])([2H])Oc1ncc(-c2ccc3nc(NC(C)=O)cn3n2)cc1C(=O)NCc1cc(OC(F)(F)F)ccc1F [Example 58, 5-{2-acetamidoimidazo[1,2-b]pyridazin-6-yl}-N-{[2-fluoro-5-(trifluoromethoxy)phenyl]methyl}-2-(D3)methoxypyridine-3-carboxamide] | 14 nM | 21 nM |  |
| CC(=O)Nc1cn2nc(-c3cc(C(=O)NCc4cc(F)cc(F)c4OC4CCCOC4)c(C)nc3C)ccc2n1 (stereo not drawn) [Example 59, N-{[3,5-difluoro-2-(oxan-3-yloxy)phenyl]methyl}-5-{2-acetamidoimidazo[1,2-b]pyridazin-6-yl}-2,6-dimethylpyridine-3-carboxamide] | 12 nM | 17 nM |  |
| CC(=O)Nc1cn2nc(-c3cc(C(=O)NCc4cc(F)cc(F)c4O[C@H]4CCOC4)c(C)nc3C)ccc2n1 [Example 60, N-({3,5-difluoro-2-[(3S)-oxolan-3-yloxy]phenyl}methyl)-5-{2-acetamidoimidazo[1,2-b]pyridazin-6-yl}-2,6-dimethylpyridine-3-carboxamide] | 6 nM | 26 nM |  |
| CC(=O)Nc1cn2nc(-c3cc(C(=O)NCc4cc(F)cc(F)c4O[C@@H]4CCOC4)c(C)nc3C)ccc2n1 [Example 61, N-({3,5-difluoro-2-[(3R)-oxolan-3-yloxy]phenyl}methyl)-5-{2-acetamidoimidazo[1,2-b]pyridazin-6-yl}-2,6-dimethylpyridine-3-carboxamide] | 33 nM | 258 nM |  |
| CC(=O)Nc1cn2nc(-c3cc(C(=O)NCc4cc(F)cc(F)c4OC4CCOC(C)C4)c(C)nc3C)ccc2n1 (stereo not drawn) [Example 62, N-({3,5-difluoro-2-[(2-methyloxan-4-yl)oxy]phenyl}methyl)-5-{2-acetamidoimidazo[1,2-b]pyridazin-6-yl}-2,6-dimethylpyridine-3-carboxamide] | 11 nM | 29 nM |  |
